Data reported in ChEMBL document CHEMBL5649169 (ChemMedChem, 2018).

Tests used:
[1] = molecular target: Deoxynucleoside triphosphate triphosphohydrolase SAMHD1 (Homo sapiens) (UniProt Q9Y3Z3)
Homo sapiens [2] = species on record: Homo sapiens
[3] = molecular target: ATPase family AAA domain-containing protein 3B (Homo sapiens) (UniProt Q5T9A4)
[4] = molecular target: Eukaryotic translation initiation factor 3 subunit G (Homo sapiens) (UniProt O75821)
[5] = molecular target: Transcription elongation regulator 1 (Homo sapiens) (UniProt O14776)
Chain of Transcription elongation regulator 1 (Homo sapiens) (O14776 whole entry): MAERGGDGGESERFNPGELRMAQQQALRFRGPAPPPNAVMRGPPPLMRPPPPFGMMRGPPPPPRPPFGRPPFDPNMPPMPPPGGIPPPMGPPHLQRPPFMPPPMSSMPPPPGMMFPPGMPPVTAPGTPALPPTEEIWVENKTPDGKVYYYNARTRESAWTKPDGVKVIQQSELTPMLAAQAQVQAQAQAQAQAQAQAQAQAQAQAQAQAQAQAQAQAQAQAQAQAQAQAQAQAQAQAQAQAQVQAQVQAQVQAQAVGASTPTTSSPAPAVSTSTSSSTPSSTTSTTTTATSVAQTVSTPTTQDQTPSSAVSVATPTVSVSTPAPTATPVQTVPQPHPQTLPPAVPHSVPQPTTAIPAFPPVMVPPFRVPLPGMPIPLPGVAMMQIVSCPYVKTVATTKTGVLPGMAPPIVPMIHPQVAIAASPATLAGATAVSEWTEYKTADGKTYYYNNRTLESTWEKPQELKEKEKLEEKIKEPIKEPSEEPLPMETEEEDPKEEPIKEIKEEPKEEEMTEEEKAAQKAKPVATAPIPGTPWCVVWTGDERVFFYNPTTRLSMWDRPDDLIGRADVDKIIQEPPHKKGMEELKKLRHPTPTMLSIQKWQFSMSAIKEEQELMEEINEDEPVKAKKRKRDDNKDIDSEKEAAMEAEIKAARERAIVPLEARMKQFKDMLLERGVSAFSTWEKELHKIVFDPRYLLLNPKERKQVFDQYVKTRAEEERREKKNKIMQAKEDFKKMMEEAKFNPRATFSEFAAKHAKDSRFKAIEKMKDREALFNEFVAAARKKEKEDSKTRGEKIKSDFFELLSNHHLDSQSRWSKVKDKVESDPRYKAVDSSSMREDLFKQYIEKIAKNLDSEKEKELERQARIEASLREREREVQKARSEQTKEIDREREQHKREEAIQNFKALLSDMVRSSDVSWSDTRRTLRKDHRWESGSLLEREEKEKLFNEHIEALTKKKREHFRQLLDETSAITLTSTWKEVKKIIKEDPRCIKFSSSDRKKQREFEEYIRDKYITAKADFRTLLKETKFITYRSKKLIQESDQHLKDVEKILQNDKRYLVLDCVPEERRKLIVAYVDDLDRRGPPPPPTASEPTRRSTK

[6] = molecular target: Serine/threonine-protein kinase SIK3 (Homo sapiens) (UniProt Q9Y2K2)
[7] = molecular target: Transketolase (Homo sapiens) (UniProt P29401)
[8] = molecular target: Serine/threonine-protein kinase MRCK beta (Homo sapiens) (UniProt Q9Y5S2)
[9] = molecular target: Fanconi anemia group D2 protein (Homo sapiens) (UniProt Q9BXW9)
[10] = molecular target: Minor histocompatibility antigen H13 (Homo sapiens) (UniProt Q8TCT9)
[11] = molecular target: Serine/threonine-protein kinase 10 (Homo sapiens) (UniProt O94804)
Homo sapiens [12] = species on record: Homo sapiens; remark: listed apart in the source
[13] = molecular target: TRAF2 and NCK-interacting protein kinase (Homo sapiens) (UniProt Q9UKE5)
[14] = molecular target: Nucleolar and coiled-body phosphoprotein 1 (Homo sapiens) (UniProt Q14978)
[15] = molecular target: Tubulin beta-3 chain (Homo sapiens) (UniProt Q13509)
Chain of Tubulin beta-3 chain (Homo sapiens) (Q13509 whole entry): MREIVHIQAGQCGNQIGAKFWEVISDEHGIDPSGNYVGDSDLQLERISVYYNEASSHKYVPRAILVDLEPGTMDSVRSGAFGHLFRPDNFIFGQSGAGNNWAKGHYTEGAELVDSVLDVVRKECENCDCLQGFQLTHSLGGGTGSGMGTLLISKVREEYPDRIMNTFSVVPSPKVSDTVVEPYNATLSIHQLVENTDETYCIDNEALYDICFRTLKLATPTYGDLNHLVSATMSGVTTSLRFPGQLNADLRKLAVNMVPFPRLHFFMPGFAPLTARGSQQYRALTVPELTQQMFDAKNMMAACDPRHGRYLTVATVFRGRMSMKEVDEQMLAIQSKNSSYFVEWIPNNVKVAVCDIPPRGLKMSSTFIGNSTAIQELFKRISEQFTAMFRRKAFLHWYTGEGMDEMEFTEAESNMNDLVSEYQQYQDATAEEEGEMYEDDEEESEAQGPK

Moesin (Homo sapiens) = Moesin (Homo sapiens) (UniProt P26038)
Chain of Moesin (Homo sapiens) (P26038 whole entry): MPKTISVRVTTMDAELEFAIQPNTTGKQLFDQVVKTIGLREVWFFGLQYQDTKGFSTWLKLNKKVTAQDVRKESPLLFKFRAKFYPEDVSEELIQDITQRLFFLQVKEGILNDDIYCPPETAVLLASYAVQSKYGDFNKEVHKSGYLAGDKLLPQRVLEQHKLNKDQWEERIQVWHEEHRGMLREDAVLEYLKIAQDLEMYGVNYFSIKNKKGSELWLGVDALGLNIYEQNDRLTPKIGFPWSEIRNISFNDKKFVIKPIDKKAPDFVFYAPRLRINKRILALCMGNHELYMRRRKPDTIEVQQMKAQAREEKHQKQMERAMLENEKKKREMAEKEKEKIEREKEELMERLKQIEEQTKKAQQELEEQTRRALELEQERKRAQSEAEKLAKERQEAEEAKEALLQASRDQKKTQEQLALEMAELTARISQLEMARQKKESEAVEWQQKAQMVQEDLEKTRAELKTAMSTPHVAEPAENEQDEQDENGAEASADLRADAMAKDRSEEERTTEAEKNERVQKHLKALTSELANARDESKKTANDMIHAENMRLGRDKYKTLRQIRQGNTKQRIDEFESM

[16] = molecular target: Dual specificity mitogen-activated protein kinase kinase 2 (Homo sapiens) (UniProt P36507)
[17] = molecular target: Splicing factor 3B subunit 1 (Homo sapiens) (UniProt O75533)
[18] = molecular target: ATP synthase F(0) complex subunit e, mitochondrial (Homo sapiens) (UniProt P56385)
Chain of ATP synthase F(0) complex subunit e, mitochondrial (Homo sapiens) (P56385 whole entry, one chain of several): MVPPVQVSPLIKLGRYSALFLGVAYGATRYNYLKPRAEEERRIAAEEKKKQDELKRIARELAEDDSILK

[19] = molecular target: Large ribosomal subunit protein eL24 (Homo sapiens) (UniProt P83731)
[20] = molecular target: Ras-related protein Rab-5C (Homo sapiens) (UniProt P51148)
Chain of Ras-related protein Rab-5C (Homo sapiens) (P51148 whole entry): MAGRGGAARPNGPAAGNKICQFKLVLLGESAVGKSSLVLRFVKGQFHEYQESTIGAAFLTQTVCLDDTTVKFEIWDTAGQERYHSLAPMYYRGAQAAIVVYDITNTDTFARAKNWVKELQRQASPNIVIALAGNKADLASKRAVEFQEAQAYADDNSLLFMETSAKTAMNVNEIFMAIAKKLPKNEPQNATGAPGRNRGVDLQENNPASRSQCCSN

Plectin (Homo sapiens) = Plectin (Homo sapiens) (UniProt Q15149)
Homo sapiens [21] = species on record: Homo sapiens; remark: listed apart in the source
[22] = molecular target: Coatomer subunit delta (Homo sapiens) (UniProt P48444)
[23] = molecular target: Chloride intracellular channel protein 1 (Homo sapiens) (UniProt O00299)
[24] = molecular target: CCR4-NOT transcription complex subunit 1 (Homo sapiens) (UniProt A5YKK6)
[25] = molecular target: Tropomyosin alpha-3 chain (Homo sapiens) (UniProt P06753)
Chain of Tropomyosin alpha-3 chain (Homo sapiens) (P06753 whole entry): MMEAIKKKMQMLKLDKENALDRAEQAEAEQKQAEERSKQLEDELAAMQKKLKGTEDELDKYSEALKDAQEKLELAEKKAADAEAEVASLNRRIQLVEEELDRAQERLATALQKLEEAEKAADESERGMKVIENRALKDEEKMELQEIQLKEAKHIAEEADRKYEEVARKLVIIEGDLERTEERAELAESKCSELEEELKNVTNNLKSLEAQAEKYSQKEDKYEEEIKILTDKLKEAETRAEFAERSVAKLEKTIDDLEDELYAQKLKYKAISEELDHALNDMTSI

[26] = molecular target: Deoxyribose-phosphate aldolase (Homo sapiens) (UniProt Q9Y315)
Chain of Deoxyribose-phosphate aldolase (Homo sapiens) (Q9Y315 whole entry, the tested form may be a part): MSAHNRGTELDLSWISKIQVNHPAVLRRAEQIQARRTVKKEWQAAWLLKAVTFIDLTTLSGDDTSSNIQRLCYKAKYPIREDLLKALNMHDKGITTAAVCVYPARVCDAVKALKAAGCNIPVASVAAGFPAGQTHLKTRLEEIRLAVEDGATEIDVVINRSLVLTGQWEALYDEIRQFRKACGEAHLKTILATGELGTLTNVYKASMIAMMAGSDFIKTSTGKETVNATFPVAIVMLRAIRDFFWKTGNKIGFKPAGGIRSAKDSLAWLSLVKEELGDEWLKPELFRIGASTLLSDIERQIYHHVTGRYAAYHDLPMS

[27] = molecular target: KH domain-containing, RNA-binding, signal transduction-associated protein 1 (Homo sapiens) (UniProt Q07666)
[28] = molecular target: H/ACA ribonucleoprotein complex subunit DKC1 (Homo sapiens) (UniProt O60832)
[29] = molecular target: Exosome complex component 10 (Homo sapiens) (UniProt Q01780)
[30] = molecular target: POTE ankyrin domain family member E (Homo sapiens) (UniProt Q6S8J3)
[31] = molecular target: Small ribosomal subunit protein eS8 (Homo sapiens) (UniProt P62241)
[32] = molecular target: Ras-related protein Rab-10 (Homo sapiens) (UniProt P61026)
[33] = molecular target: Casein kinase I isoform epsilon (Homo sapiens) (UniProt P49674)
[34] = molecular target: 5'-AMP-activated protein kinase catalytic subunit alpha-1 (Homo sapiens) (UniProt Q13131)
[35] = molecular target: Cytoplasmic dynein 1 light intermediate chain 1 (Homo sapiens) (UniProt Q9Y6G9)
[36] = molecular target: Nucleosome assembly protein 1-like 1 (Homo sapiens) (UniProt P55209)
[37] = molecular target: Small ribosomal subunit protein mS27 (Homo sapiens) (UniProt Q92552)
[38] = molecular target: Protein S100-A6 (Homo sapiens) (UniProt P06703)
[39] = molecular target: Large ribosomal subunit protein eL8 (Homo sapiens) (UniProt P62424)
[40] = molecular target: Leucine--tRNA ligase, cytoplasmic (Homo sapiens) (UniProt Q9P2J5)
[41] = molecular target: Nucleolar protein 56 (Homo sapiens) (UniProt O00567)
[42] = molecular target: Ceramide synthase 2 (Homo sapiens) (UniProt Q96G23)
[43] = molecular target: ER lumen protein-retaining receptor 2 (Homo sapiens) (UniProt P33947)
Chain of ER lumen protein-retaining receptor 2 (Homo sapiens) (P33947 whole entry): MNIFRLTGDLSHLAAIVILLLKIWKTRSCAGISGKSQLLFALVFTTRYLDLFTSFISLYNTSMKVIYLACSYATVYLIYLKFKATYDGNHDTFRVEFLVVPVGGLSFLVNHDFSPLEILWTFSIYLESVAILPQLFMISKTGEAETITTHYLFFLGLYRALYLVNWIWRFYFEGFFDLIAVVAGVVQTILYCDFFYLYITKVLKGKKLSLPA

[44] = molecular target: Drebrin-like protein (Homo sapiens) (UniProt Q9UJU6)
Chain of Drebrin-like protein (Homo sapiens) (Q9UJU6 whole entry): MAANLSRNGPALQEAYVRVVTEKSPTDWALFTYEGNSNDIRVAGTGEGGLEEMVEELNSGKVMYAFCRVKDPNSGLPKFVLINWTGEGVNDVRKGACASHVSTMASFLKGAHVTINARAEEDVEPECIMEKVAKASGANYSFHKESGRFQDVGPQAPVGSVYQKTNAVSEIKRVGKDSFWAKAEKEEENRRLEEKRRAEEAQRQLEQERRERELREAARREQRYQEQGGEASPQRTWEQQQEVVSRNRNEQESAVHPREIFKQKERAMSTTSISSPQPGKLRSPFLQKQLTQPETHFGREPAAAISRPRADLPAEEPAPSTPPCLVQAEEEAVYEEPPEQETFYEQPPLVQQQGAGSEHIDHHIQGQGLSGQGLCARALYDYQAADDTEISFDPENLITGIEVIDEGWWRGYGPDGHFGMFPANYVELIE

[45] = molecular target: Phosphatidylinositol 4-kinase alpha (Homo sapiens) (UniProt P42356)
Further: assay method not described here.

Chain of Deoxynucleoside triphosphate triphosphohydrolase SAMHD1 (Homo sapiens) (Q9Y3Z3 whole entry): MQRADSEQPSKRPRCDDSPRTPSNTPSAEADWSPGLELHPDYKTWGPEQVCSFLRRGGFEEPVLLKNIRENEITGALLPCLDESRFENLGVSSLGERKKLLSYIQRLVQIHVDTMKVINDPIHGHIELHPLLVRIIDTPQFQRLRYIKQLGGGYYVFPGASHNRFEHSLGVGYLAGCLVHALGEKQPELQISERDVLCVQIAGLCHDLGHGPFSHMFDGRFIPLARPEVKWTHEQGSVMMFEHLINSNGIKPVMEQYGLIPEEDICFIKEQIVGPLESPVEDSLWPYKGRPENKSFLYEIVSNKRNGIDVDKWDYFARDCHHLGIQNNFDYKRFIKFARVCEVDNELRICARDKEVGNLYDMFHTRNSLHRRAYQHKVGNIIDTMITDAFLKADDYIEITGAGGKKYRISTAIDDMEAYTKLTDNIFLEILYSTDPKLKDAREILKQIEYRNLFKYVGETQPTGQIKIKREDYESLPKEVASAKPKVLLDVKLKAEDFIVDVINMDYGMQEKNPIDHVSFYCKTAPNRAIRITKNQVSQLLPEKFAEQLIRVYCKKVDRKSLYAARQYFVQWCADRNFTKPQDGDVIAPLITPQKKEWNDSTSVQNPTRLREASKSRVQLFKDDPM
Chain of ATPase family AAA domain-containing protein 3B (Homo sapiens) (Q5T9A4 whole entry, the tested form may be a part): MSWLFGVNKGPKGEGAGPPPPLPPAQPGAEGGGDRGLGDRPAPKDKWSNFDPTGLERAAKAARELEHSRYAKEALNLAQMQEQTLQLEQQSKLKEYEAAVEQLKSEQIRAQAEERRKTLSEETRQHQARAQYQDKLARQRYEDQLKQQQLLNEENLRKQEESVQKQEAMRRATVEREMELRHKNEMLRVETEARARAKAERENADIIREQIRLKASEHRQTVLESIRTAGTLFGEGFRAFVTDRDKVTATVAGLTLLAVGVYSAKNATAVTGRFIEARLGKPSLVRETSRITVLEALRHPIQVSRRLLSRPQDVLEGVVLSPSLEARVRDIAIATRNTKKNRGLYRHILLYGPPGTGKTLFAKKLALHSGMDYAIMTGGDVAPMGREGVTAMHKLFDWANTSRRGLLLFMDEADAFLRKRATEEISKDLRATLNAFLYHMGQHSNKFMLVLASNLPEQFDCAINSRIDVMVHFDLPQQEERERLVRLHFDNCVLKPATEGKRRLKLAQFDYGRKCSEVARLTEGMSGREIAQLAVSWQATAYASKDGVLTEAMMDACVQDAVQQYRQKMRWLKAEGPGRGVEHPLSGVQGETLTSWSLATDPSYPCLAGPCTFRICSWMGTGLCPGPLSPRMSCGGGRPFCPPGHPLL

For `Cc1ccc(C(=O)Nc2cccc(C(F)(F)F)c2)cc1Nc1nc(-c2cccnc2)nc2c1cnn2C`, which ED50 [1] is on record?
The ED50 was 3.63 nM.

What about the ED50 (Homo sapiens [2]) of the same compound?
Its ED50 is 49300 nM.

And the ED50 [3]?
Its ED50 is 80.9 nM.

And the ED50 [4]?
The ED50 was 4.67 nM.

And the ED50 [5]?
The ED50 was 732000 nM.

What about the ED50 [6] of the same compound?
The ED50 was 112000 nM.

And the ED50 [7]?
Its ED50 is 167 nM.

What about the ED50 [8] of the same compound?
The ED50 was 641 nM.

What about the ED50 [9] of the same compound?
The ED50 was 1960 nM.

What about the ED50 [10] of the same compound?
The ED50 was 9930 nM.

What about the ED50 [11] of the same compound?
The ED50 was 2820 nM.

And the ED50 (Homo sapiens [12])?
Its ED50 is 3030 nM.

And the ED50 [13]?
Its ED50 is 23200 nM.

What about the ED50 [14] of the same compound?
The ED50 was 13.9 nM.

What about the ED50 [15] of the same compound?
The ED50 was 3060 nM.

And the ED50 (Moesin (Homo sapiens))?
The ED50 was 10700 nM.

What about the ED50 [16] of the same compound?
The ED50 was 12.7 nM.

And the ED50 [17]?
The ED50 was 2850 nM.

What about the ED50 [18] of the same compound?
Its ED50 is 20000 nM.

What about the ED50 [19] of the same compound?
The ED50 was 10300 nM.

What about the ED50 [20] of the same compound?
The ED50 was 19200 nM.

What about the ED50 (Plectin (Homo sapiens)) of the same compound?
The ED50 was 11900 nM.

And the ED50 (Homo sapiens [21])?
The ED50 was 878 nM.

And the ED50 [22]?
The ED50 was 2380 nM.

What about the ED50 [23] of the same compound?
Its ED50 is 14300 nM.

What about the ED50 [24] of the same compound?
The ED50 was 68.8 nM.

What about the ED50 [25] of the same compound?
Its ED50 is 5570 nM.

And the ED50 [26]?
The ED50 was 3140 nM.

And the ED50 [27]?
The ED50 was 118 nM.

And the ED50 [28]?
Its ED50 is 3140 nM.

What about the ED50 [29] of the same compound?
Its ED50 is 3.7 nM.

What about the ED50 [30] of the same compound?
The ED50 was 11700 nM.

And the ED50 [31]?
Its ED50 is 1620 nM.

What about the ED50 [32] of the same compound?
Its ED50 is 846 nM.

And the ED50 [33]?
Its ED50 is 4260 nM.

What about the ED50 [34] of the same compound?
The ED50 was 13200 nM.

And the ED50 [35]?
Its ED50 is 24.4 nM.

And the ED50 [36]?
Its ED50 is 3100 nM.

And the ED50 [37]?
Its ED50 is 99 nM.

And the ED50 [38]?
The ED50 was 118 nM.

What about the ED50 [39] of the same compound?
Its ED50 is 2570 nM.

And the ED50 [40]?
Its ED50 is 4630 nM.

And the ED50 [41]?
Its ED50 is 13100 nM.

What about the ED50 [42] of the same compound?
Its ED50 is 68.3 nM.

What about the ED50 [43] of the same compound?
The ED50 was 109 nM.

And the ED50 [44]?
The ED50 was 133 nM.

What about the ED50 [45] of the same compound?
The ED50 was 18600 nM.

`Cc1ccc(C(=O)Nc2cccc(C(F)(F)F)c2)cc1Nc1nc(-c2cccnc2)nc2nn(C)cc12` was tested. Which ED50 [1] did it give?
The ED50 was 12800 nM.

And the ED50 (Homo sapiens [2])?
Its ED50 is 631 nM.

And the ED50 [3]?
The ED50 was 18.8 nM.

And the ED50 [4]?
Its ED50 is 10.4 nM.

And the ED50 [5]?
Its ED50 is 87.6 nM.

And the ED50 [6]?
Its ED50 is 10400 nM.

What about the ED50 [7] of the same compound?
The ED50 was 151 nM.

What about the ED50 [8] of the same compound?
Its ED50 is 8.92 nM.

And the ED50 [9]?
Its ED50 is 2280 nM.

And the ED50 [10]?
Its ED50 is 10600 nM.

And the ED50 [11]?
Its ED50 is 35.1 nM.

And the ED50 (Homo sapiens [12])?
The ED50 was 9.33 nM.

What about the ED50 [13] of the same compound?
The ED50 was 75.1 nM.

What about the ED50 [14] of the same compound?
Its ED50 is 178 nM.

And the ED50 [15]?
The ED50 was 106 nM.

What about the ED50 (Moesin (Homo sapiens)) of the same compound?
Its ED50 is 256 nM.

And the ED50 [16]?
Its ED50 is 2140 nM.

What about the ED50 [17] of the same compound?
Its ED50 is 3000 nM.

What about the ED50 [18] of the same compound?
The ED50 was 531 nM.

And the ED50 [19]?
Its ED50 is 27000 nM.

And the ED50 [20]?
Its ED50 is 13900 nM.

What about the ED50 (Plectin (Homo sapiens)) of the same compound?
The ED50 was 11 nM.

What about the ED50 (Homo sapiens [21]) of the same compound?
The ED50 was 217 nM.

What about the ED50 [22] of the same compound?
Its ED50 is 8380 nM.

And the ED50 [23]?
The ED50 was 20900 nM.

And the ED50 [24]?
The ED50 was 20.3 nM.

And the ED50 [25]?
Its ED50 is 18900 nM.

And the ED50 [26]?
Its ED50 is 2450 nM.

What about the ED50 [27] of the same compound?
Its ED50 is 9620 nM.

And the ED50 [28]?
The ED50 was 5990 nM.

What about the ED50 [29] of the same compound?
The ED50 was 348000 nM.

What about the ED50 [30] of the same compound?
The ED50 was 2450 nM.

And the ED50 [31]?
Its ED50 is 9510 nM.

What about the ED50 [32] of the same compound?
The ED50 was 7340 nM.

What about the ED50 [33] of the same compound?
The ED50 was 4.08 nM.

And the ED50 [34]?
Its ED50 is 59.1 nM.

What about the ED50 [35] of the same compound?
Its ED50 is 897 nM.

What about the ED50 [36] of the same compound?
Its ED50 is 147000 nM.

And the ED50 [37]?
The ED50 was 835 nM.

What about the ED50 [38] of the same compound?
The ED50 was 11500 nM.

And the ED50 [39]?
The ED50 was 9780 nM.

And the ED50 [40]?
The ED50 was 265 nM.

What about the ED50 [41] of the same compound?
Its ED50 is 4000 nM.

And the ED50 [42]?
The ED50 was 3600 nM.

What about the ED50 [43] of the same compound?
The ED50 was 51 nM.

What about the ED50 [44] of the same compound?
The ED50 was 5.9 nM.

What about the ED50 [45] of the same compound?
The ED50 was 50100 nM.
